Measurements from patent publication EP1311486B1, “USES OF THALIPORPHINE OR ITS DERIVATIVES IN TREATMENT OF CARDIAC DISEASES AND PREPARATION OF SAME” (Lotus Pharmaceutical Co., Ltd., priority 2000, dated 2002).
Values joined by “and” are separate entries in the source; they are usually repeats but may differ in a detail not shown here. Equal entries are not always repeated. Marks after values point to notes of the source that are not given here.

What was measured:
[1] = system: Human low density lipoprotein (LDL); test: Copper-induced lipid peroxidation of LDL (TBARS formation); type: biochemical; settings: LDL 100µg/ml, 37°C, CuSO4 12 hours
Experimental: Human low density lipoprotein (LDL, 100µg/ml) was preincubated with DMSO (0.1%, basal and control) or various concentrations of THP at 37°C for 10 minutes, and then CuSO4 was added, except for basal, and incubated for another 12 hours to determine the impact of THP on lipid peroxidation.
The impact of THP on lipid peroxidation is further assessed by evaluating its effect on the formation of TBARS (thiobarbituric acid-reactive substance) from LDL. Exposure of LDL to CuSO4 within 12 hours results in the peroxidation of LDL, as indicated by the increased content of TBARS (FIG. 3).

isolated rat hearts = test: Arrhythmia induced by ligation-reperfusion in isolated rat heart
Experimental: The isolated rat hearts were ligated by a temporary tightening of the silk ligature around the left main coronary artery to induce myocardial ischemia. Reperfusion was achieved by releasing the tension applying to the ligature to induce arrhythmia. 10µM THP was then administered and the atrial and ventricular electrograms were recorded.
Similarly, 10µM THP can be effective in inhibiting the cardiac arrhythmia induced in the isolated guinea pig heart subjected to global ischemia followed by reperfusion (Table 1). The structure of coronary arteries between rat and guinea pig are not alike, THP, however, can be effective in inhibiting the arrhythmia induced in the isolated heart subjected to ischemia-reperfusion in both animals.

in vivo anesthetized rat = test: Reperfusion-induced arrhythmias in the anesthetized rat (5 minutes ischemia, 30 minutes reperfusion)
Experimental: Myocardial ischemia was performed by a temporary tightening of the silk ligature around the left main coronary artery. Reperfusion was achieved by releasing the tension applied to the ligature (operated groups). Sham operated animals underwent all surgical procedures, apart from the fact that the silk, passing around the left coronary artery, was not tied (sham groups). Animals were infused with a bolus of THP (3.5x10^-7, 3.5x10^-6, 3.5x10^-5 g/kg), L-NAME (N^∞-nitro-L-arginine methyl ester; 1x10^-3 g/kg) or vehicle (dimethyl sulfoxide/ NaCl 0.9%, 1:10^3; v/v) from a jugular vein 15 minutes before coronary occlusion. The coronary artery was occluded for 30 minutes or 5 minutes followed by 30 minutes reperfusion and with the animals then divided randomly in the following groups: (1) sham + vehicle; (2) sham + THP (3.5x10^-5g/kg); (3) operated + vehicle; (4) operated + THP (3.5x10^-7 g/kg); (5) operated + THP (3.5x10^-6 g/kg); (6) operated + THP (3.5x10^-5 g/kg); (7) operated + L-NAME (1x10^-3 g/kg) + THP (3.5x10^-5 g/kg). Before and during the ischemia or reperfusion period, heart rate (HR), blood pressure (BP) and ECG changes were recorded. Ventricular ectopic activity was evaluated according to the diagnostic criteria advocated in the Lambeth Convention. The incidence and duration of ventricular tachyarrhythmias, including ventricular tachycardia (VT) and ventricular fibrillation (VF), in surviving animals was determined. The Mann-Whitney rank-sum test was used to analyze the differences in the duration of VT and VF between vehicle and drug treated groups. The BP and HR changes between vehicle and drug treated rats in the arrhythmia study were analyzed by ANOVA (analysis of variance) followed by Bonferroni's test. The difference in the percentage incidence of VT, VF and mortality rate was analyzed with a Chi-square test. Table 2 Effect of THP on ischemia-induced arrhythmias in the in vivo anesthetized rat
The severity of reperfusion induced-arrhythmias is critically dependent upon the duration of the preceding period of ischemia. Thus, the protocol of a 5 minutes period of ischemia followed by a 30 minutes period of reperfusion is selected for producing the highest incidence of rhythm disturbance. […] In contrast, animals pretreated with THP (3.5x10^-6 and 3.5x10^-5 g/kg), experienced a drastic reduction in the incidence of VF from 88% to 29% and 13% (p<0.05) and the duration of VF from 92.4±20.5 seconds to 9.2±8.3 and 1.2±1.2 seconds (p<0.05). The mortality rate also decreases from 75% to 0% by 3.5x10^-6 g/kg THP (p<0.05). However, L-NAME coadministration only partially antagonizes the antiarrhythmic activity and mortality prevention effect of thaliporphine (3.5x10^-5 g/kg).

[2] = system: rats subjected to 4 hours coronary ligation; test: Area at risk and infarct size after 4 hours coronary ligation (triphenyl tetrazolium chloride-Evan's blue staining); type: in vivo, rat
Experimental: Infarct size was determined by the triphenyl tetrazolium chloride-Evan's blue staining technique. The rat was sacrificed after its left descending coronary artery had been occluded for 4 hours. The weight of infarct tissue was expressed as a percentage of total ventricular weight or occluded zone. The difference in infarct size was statistically analyzed using unpaired Student's t-test. Table 4 Area at risk and infarct size in vehicle and THP-treated rats subjected to 4 hours coronary ligation
The difference in ischemic area and infarct size shown by staining technique after 4 hours of ischemia is evaluated. […] In the vehicle group, the necrotic area expresses either as a percentage of the area at risk (45.2±1.0%) or as a percentage of the total ventricle (19.8±2.2%), indicating the amount of cardiac tissue at risk becomes necrotic. Administration of THP reduces myocardial necrosis extension in a dose dependent manner. This reduction is observed either in the necrotic area/area at risk (38.1±5.0%, 29.0±2.5% and 10.7±1.8%/with 3.5x10^-7, 10^-6, 10^-5 g/kg of THP, respectively) or in the necrotic area/total ventricle (17.9+2.3%, 13.4±1.2% and 5.0±0.9% with 3.5x10^-7, 10^-6, 10^-5 g/kg of THP, respectively).

SMILES: COc1cc2c(cc1OC)-c1c(O)c(OC)cc3c1C(C2)N(C)CC3 (single isomer, unassigned; (+)) [THP, (+)-Thaliporphine]
- IC50 [1]: 15.7 µM
- effect on polymorphic ventricular tachyrhythmia induced by ischemia-reperfusion (isolated rat hearts; 10 µM, FIG. 5 (a)): conversion of polymorphic ventricular tachyrhythmia induced by ischemia-reperfusion to normal sinus rhythm
- IC50 (isolated rat hearts; 0.5 h, isolated rat heart, 30 minutes ligation followed by reperfusion, 3-30µM, read-out: IC50, reversing the cardiac arrhythmia): 15.7 µM
- Mortality (%) (in vivo anesthetized rat; THP 3.5x10^-5 g/kg i.v.): 0* %
- VF Duration (in vivo anesthetized rat; THP 3.5x10^-5 g/kg i.v.): 1.2 ± 1.2 s
- VF Incidence(%) (in vivo anesthetized rat; THP 3.5x10^-5 g/kg i.v.): 13% and 14* %
- VT Duration (in vivo anesthetized rat; THP 3.5x10^-5 g/kg i.v.): 7.6 ± 3.2 s
- VT Incidence(%) (in vivo anesthetized rat; THP 3.5x10^-5 g/kg i.v.): 71%
- Mortality (%) (in vivo anesthetized rat; THP 3.5x10^-6 g/kg i.v.): 0%
- VF Duration (in vivo anesthetized rat; THP 3.5x10^-6 g/kg i.v.): 9.2 ± 8.3 s
- VF Incidence(%) (in vivo anesthetized rat; THP 3.5x10^-6 g/kg i.v.): 29%
- VT Duration (in vivo anesthetized rat; THP 3.5x10^-6 g/kg i.v.): 14.6 ± 9.1 s
- VT Incidence(%) (in vivo anesthetized rat; THP 3.5x10^-6 g/kg i.v.): 57%
- Mortality (%) (in vivo anesthetized rat; THP 3.5x10^-7 g/kg i.v.): 43%
- VF Duration (in vivo anesthetized rat; THP 3.5x10^-7 g/kg i.v.): 75.5 ± 15.6 s
- VF Incidence(%) (in vivo anesthetized rat; THP 3.5x10^-7 g/kg i.v.): 86%
- VT Duration (in vivo anesthetized rat; THP 3.5x10^-7 g/kg i.v.): 28.6 ± 10.4 s
- VT Incidence(%) (in vivo anesthetized rat; THP 3.5x10^-7 g/kg i.v.): 86%
- Area at risk (% of ventricle) ([2]; THP 3.5x10^-5 g/kg): 46.9±0.5 % of ventricle
- Necrotic (% of Area at risk) ([2]; THP 3.5x10^-5 g/kg): 10.7±1.8 % of Area at risk
- Necrotic (% of ventricle) ([2]; THP 3.5x10^-5 g/kg): 5.0±0.9 % of ventricle
- Area at risk (% of ventricle) ([2]; THP 3.5x10^-6 g/kg): 46.5±0.9 % of ventricle
- Necrotic (% of Area at risk) ([2]; THP 3.5x10^-6 g/kg): 29.0±2.5 % of Area at risk
- Necrotic (% of ventricle) ([2]; THP 3.5x10^-6 g/kg): 13.4±1.2 % of ventricle
- Area at risk (% of ventricle) ([2]; THP 3.5x10^-7 g/kg): 47.0±0.6 % of ventricle
- Necrotic (% of Area at risk) ([2]; THP 3.5x10^-7 g/kg): 38.1±5.0 % of Area at risk
- Necrotic (% of ventricle) ([2]; THP 3.5x10^-7 g/kg): 17.9+2.3 % of ventricle and 17.9±2.3 % of ventricle
